Reference: the METLIN SMRT retention time set (Domingo-Almenara et al. 2019)

Experiment: gradient 5% acetonitrile 3 min, to 50% in 2 min, to 85% in 15 min, held 3 min, 100 µL/min
Conditions: column: Zorbax Extend-C18 2.1 x 50 mm; eluents: water / acetonitrile, 0.1% formic acid
Outline: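 Retention time was recorded from adduct peaks, which were picked computationally and each inspected manually. Pure standards ran in mixtures of ~100 molecules on HPLC coupled to a quadrupole time-of-flight mass spectrometer, in positive and negative ionization mode, through a Zorbax Extend-C18 column (2.1 × 50 mm, 1.8 μm) at 100 μL/min. Eluents were water and acetonitrile, each with 0.1% formic acid.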

Row | RP-LC retention time | SMILES
1 | 692 s | CCOc1ccc(NC(=O)CCC2CCCN(c3cc(NC4CC4)ncn3)C2)cc1 (centres undefined)
2 | 584 s | COc1ccc(CN2CCC[C@H]2c2nc(C3CCOCC3)n[nH]2)c(Cl)c1OC
3 | 797 s | COCCn1nnnc1C1CC2(CCOCC2)C(=O)N1Cc1ccc(C(F)(F)F)cc1 (centres undefined)
4 | 787 s | CCCCN(C)C(=O)Cn1nc(C)c2c(C)n(-c3ccccc3)nc2c1=O
5 | 728 s | O=C(Cn1c(=O)nc(N2CCCCC2)c2ccccc21)Nc1ccc2c(c1)OCCO2
6 | 716 s | Cn1cc(S(=O)(=O)N2CCC(C(=O)Nc3ccc4c(c3)OCO4)CC2)cc1C(=O)N1CCCC1
7 | 784 s | Clc1cc(Cl)cc(-c2ccc(CNCc3ccco3)o2)c1
8 | 1040 s | Cc1cc2c(cc(C(=O)NCCc3ccccc3)n2C)s1
9 | 618 s | CCCN1CCN(c2cc(C(=O)O)c3cc(NS(=O)(=O)c4cc(F)ccc4F)ccc3n2)CC1
10 | 715 s | CCOc1cc(C)c(S(=O)(=O)N2CCC(C(N)=O)CC2)cc1C
11 | 703 s | COc1ccc(-c2coc3cc(OCC(=O)O)ccc3c2=O)cc1OC
12 | 597 s | COc1cc(C(C)=O)ccc1OCC(O)CN1CCN(c2cccc(C)c2C)CC1 (centres undefined)
13 | 848 s | N#Cc1ccc(C(=O)NCc2cnoc2-c2ccc(F)cc2)cc1
14 | 628 s | COc1ccc(-n2nnc(C(=O)O)c2C)cc1OC
15 | 790 s | CC(CCc1ccccc1)NC(=O)C1CCN(Cc2cn(C)c3ccc(Cl)cc23)CC1 (centres undefined)
16 | 801 s | N#Cc1ccc(NC(=O)C(=O)c2ccc[nH]2)cc1
17 | 618 s | CCOc1cccc(C2CC(c3cccc(OC)c3)=NC3(CCN(C(C)C)CC3)N2)c1O (centres undefined)
18 | 1030 s | Cc1ccc(S(=O)(=O)Cc2cccc(-c3nc(-c4ccc5c(c4)oc(=O)n5C)no3)c2)cc1
19 | 539 s | O=C(CN1CCC(c2nnc(-c3ccc(F)cc3)o2)CC1)Nc1cccnc1
20 | 936 s | CC(C)c1ccc2occ(CC(=O)N(Cc3ccc(N(C)C)cc3)C3CCS(=O)(=O)C3)c2c1 (centres undefined)
21 | 1020 s | CC(NC(=O)c1sc2ncccc2c1-n1cccc1)c1ccc2c(c1)OCCO2 (centres undefined)
22 | 1130 s | CCOc1cc(-c2noc(-c3nnn4c3COC(c3ccc(F)cc3)C4)n2)ccc1OC (centres undefined)
23 | 747 s | CCN1C(=O)c2cccnc2Sc2cc(CNC(=O)c3cccn3C)ccc21

Row | RP-LC retention time | SMILES
24 | 708 s | COC(=O)c1[nH]c(C)c(C(=O)C(C)N(CC2CCCCC2)C(=O)c2ccc(OC)cc2)c1C (centres undefined)
25 | 630 s | CCC(=O)N1CCc2c(C(=O)N3CCOCC3)cccc21
26 | 806 s | CS(=O)(=O)N1CCCc2ccc(NS(=O)(=O)c3ccccc3Cl)cc21
27 | 710 s | COc1ccc(C)cc1NC(=O)N1CC(c2nc(C(C)C)nn2C)C1
28 | 612 s | COCCN1C(=O)c2ccccc2C(C(=O)NCCCN2CCCCC2)C1c1cccs1 (centres undefined)
29 | 878 s | Cc1cc(N2CCC(NC(=O)Nc3ccccc3Cl)C2=O)ccc1F (centres undefined)
30 | 1070 s | CCc1cc(-c2csc(S(=O)(=O)NCc3ccc(OC(C)C)cc3)c2)on1
31 | 666 s | CC1CCCN(CC2CCN(S(=O)(=O)Cc3cc(F)cc(F)c3)CC2)C1 (centres undefined)
32 | 836 s | CCn1nccc1C(=O)N1CCCC1c1ccccc1C (centres undefined)
33 | 791 s | O=C(Cc1ccccc1F)Nc1ccc(-c2cn3c(C(=O)N4CCCC4)csc3n2)cc1
34 | 916 s | CC(C)N1C(=O)c2cccnc2Sc2cc(NC(=O)c3ccc(F)cc3Cl)ccc21
35 | 1040 s | Fc1ccc(-n2cc(-c3noc(-c4ccccc4F)n3)nn2)cc1
36 | 564 s | Cc1sc2ccn(C)c(=O)c2c1C(=O)N1CCN(c2ccccn2)CC1
37 | 779 s | O=C(NCc1nc(-c2ccccc2)no1)c1csc(-c2cnccn2)n1
38 | 716 s | COCCN1C(=O)CCc2cc(NS(=O)(=O)c3cccc4nsnc34)ccc21
39 | 662 s | O=C(Cc1ccsc1)Nc1ccc2c(c1)CCC(=O)N2
40 | 692 s | CSc1ccc(CNC(=O)c2cn3ccccc3n2)cc1
41 | 780 s | COc1ccc(-c2nnc(CC(=O)NC3CCCCCC3)o2)cc1
42 | 896 s | CCc1ccc2nc(Nc3ncc4c(n3)CC(c3cccc(Cl)c3)CC4=O)nc(C)c2c1 (centres undefined)
43 | 730 s | CCCNC(=O)N1CC(Oc2cccc(-c3nc(C)no3)c2)C1
44 | 769 s | Cc1noc(C2CN(C(=O)Nc3ccc(Cl)cc3F)CC23CCOCC3)n1 (centres undefined)
45 | 839 s | CCCS(=O)(=O)N1CCCN(C2=NS(=O)(=O)C(c3ccccc3)=C2C)CC1
46 | 659 s | CCNc1ncnc2sc3c(c12)CCN(Cc1ccncc1)C3

Row | RP-LC retention time | SMILES
47 | 705 s | CCn1cc(CCNC(=O)Nc2cc(C)cc(C)c2)c2cccnc21
48 | 608 s | O=C(Cc1cn2cc(Br)ccc2n1)Nc1ccc2c(c1)OCCO2
49 | 984 s | CC(C(=O)Nc1ccc(F)c(F)c1)C1CCN(C(=O)Nc2ccc(Cl)cc2)CC1 (centres undefined)
50 | 961 s | O=C(CCn1c(=O)oc2ccccc21)Nc1nc(-c2ccccc2)cs1
51 | 979 s | O=C(Cn1c(=O)oc2ccccc21)N1CCC(Oc2nc3c(Cl)cccc3s2)CC1
52 | 715 s | COc1ccc(NC(=O)C2CCN(S(=O)(=O)c3ccc4c(c3)NC(=O)CO4)CC2)cc1OC
53 | 650 s | CCC(=O)N(C)CCc1noc(-c2ccc(C(=O)NCCCOC)cc2)n1
54 | 1080 s | CCc1cc(=O)n(CC(=O)Nc2cccc(C#N)c2)c(-c2ccccc2)n1
55 | 1010 s | Cc1ccc(C(=O)Nc2nc(-c3ccc4c(c3)NC(=O)C(C)O4)c(C)s2)cc1 (centres undefined)
56 | 633 s | O=C(Nc1cc(F)ccc1Cl)c1ccc2c(c1)nnn2CCN1CCOCC1
57 | 962 s | O=C(NCc1ccco1)C(=O)c1cccn1Cc1ccc(F)cc1
58 | 610 s | Cc1cc(NC(C)C)n2c(nc3ccccc32)c1C#N
59 | 669 s | Cc1cccc2nnc(N3CCN(C(=O)c4cc(F)cc(F)c4)CC3)n12
60 | 753 s | Cc1ccc(F)c(NC(=O)C2CC(=O)N(c3ccc4oc(C)nc4c3)C2)c1 (centres undefined)
61 | 1080 s | Cc1c(Cl)cccc1NC(=O)Cn1c(=O)cc(-c2nc(C(C)C)no2)c2ccccc21
62 | 734 s | Cc1ccn2cc(-c3ccc(NC(=O)c4cccc(I)c4)cc3)nc2n1
63 | 877 s | CSc1cccc(NC(=O)Cn2ccn3nc(-c4ccc(F)cc4)c(CO)c3c2=O)c1
64 | 1140 s | Cc1ccc(-c2nc3cnccn3c2Nc2ccc(C)cc2Br)cc1
65 | 1040 s | Cc1ccccc1CNC(=O)C1(C)CCCN(C(=O)Nc2ccc(F)c(Cl)c2)C1 (centres undefined)
66 | 656 s | O=C(O)CN1CCCc2c(cnn2Cc2ccccc2)C1=O
67 | 784 s | CCOc1ccc(CNC(=O)C2CCCN(c3nn4c(=O)c5c(nc4s3)CCCC5)C2)cc1 (centres undefined)
68 | 1090 s | Cc1ccccc1CNC(=O)C1(C)CCN(S(=O)(=O)c2cccc(Cl)c2C)CC1
69 | 646 s | Cc1cc(F)cc2c(=O)c3c([nH]c12)CCN(CC(=O)Nc1cccc(Cl)c1)C3

Row | RP-LC retention time | SMILES
70 | 1010 s | Cc1cccc(CN2N=C(C(=O)N3CCCCC3)S(=O)(=O)c3ccccc32)c1
71 | 568 s | O=C(NCc1cccnc1)C1(c2ccc(F)cc2)CC1
72 | 615 s | O=C(c1ccc2c(c1)OCO2)N1CC(F)(F)C[C@H]1COc1ccncc1
73 | 565 s | Cn1ccnc1C(=O)N1CCc2nn(CC3CC3)c(=O)n2CC1
74 | 1110 s | Cc1ccc(-c2noc(Cn3c(=O)n(Cc4ccco4)c(=O)c4ccccc43)n2)cc1
75 | 1190 s | Cc1cc(C)n(-c2cc(N3CCN(c4nc(-c5ccccc5)cs4)CC3)ccc2[N+](=O)[O-])n1
76 | 722 s | COc1ccc(NC(=O)NC2CCN(c3ccc(F)cc3)C2=O)cc1OC (centres undefined)
77 | 787 s | CN(C)c1ccc(-c2nc3cnccn3c2Nc2ccc(F)cc2)cc1
78 | 661 s | Cc1ccsc1C(=O)N1CCCC2(CC1)CN(C)C(=O)O2 (centres undefined)
79 | 1320 s | CCCN1C(=O)COc2ccc(-c3noc(-c4ccc(OC)cc4C)n3)cc21
80 | 1100 s | COC1CN(c2ccc(C)cc2)C12CCN(C(=O)C1(c3ccccc3)CC1)CC2 (centres undefined)
81 | 606 s | CS(=O)(=O)N1CCN(C(=O)c2ccsc2)CC1
82 | 1080 s | Cc1ccccc1S(=O)(=O)N1CCC2(CC1)CC(OCC1CC1)CCO2 (centres undefined)
83 | 604 s | Cc1nc2ncc(-c3ccnc(N4CCN(Cc5ccccc5)CC4)n3)c(C)n2n1
84 | 929 s | COc1cccc(Nc2c(-c3cccc(O)c3)nc3cnccn23)c1
85 | 1260 s | Fc1ccc(C2Cn3nnc(-c4nc(-c5cccc(Cl)c5)no4)c3CO2)cc1 (centres undefined)
86 | 1170 s | Clc1cccc(-c2nnc(-c3nc(NC4CCCC4)c4ccccc4n3)o2)c1
87 | 626 s | CCCNc1nc(C(=O)OCC)nc2ccccc12
88 | 580 s | COc1ccc(CN2CC[C@@H]3CN(S(C)(=O)=O)[C@@H]3C2)c(OC)c1
89 | 978 s | Cc1nn(CC(=O)N2CCCCCC2)c(=O)c2c(-n3cccc3)n(-c3ccccc3)nc12
